Data: patent publication US11034650B2, “Compounds useful for treating a Mannheimia haemolytica or Histophilus somni infection” (Intervet Inc., priority 2016, dated 2021)
Converted amounts (≈) assume the structure as drawn.

Experiments:
Type in all cases: cell-based
[1] = tested on: Pasteurella multocida PM 10775 (080130003051, BRD field isolate); test: MIC, broth-microdilution (CLSI VET01-A4), strain PM 10775; details: Pasteurella multocida strain PM 10775, broth-microdilution; unit assumed
Procedure, shortened: (§1)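 Growth inhibition is scored visually on a doubling dilution series. The reported MIC corresponds to the lowest concentration free of turbidity, with results assessed under CLSI VET01-S3.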

[2] = tested on: Mannheimia haemolytica MH 13093 (XB0472-6014.1, BRD field isolate); test: MIC, broth-microdilution (CLSI VET01-A4), strain MH 13093; details: Mannheimia haemolytica strain MH 13093, broth-microdilution; unit assumed
Procedure, shortened: as §1

[3] = tested on: Mannheimia haemolytica MH 12587 (1071, BRD field isolate, macrolide-resistance: erm+, E+); test: MIC, broth-microdilution (CLSI VET01-A4), strain MH 12587; details: Mannheimia haemolytica strain MH 12587, broth-microdilution; unit assumed
Procedure, shortened: as §1

[4] = tested on: Mannheimia haemolytica MH 6374 (ATCC 33396, reference strain); test: MIC, broth-microdilution (CLSI VET01-A4), strain MH 6374; details: Mannheimia haemolytica strain MH 6374, broth-microdilution; unit assumed
Procedure, shortened: as §1

[5] = tested on: Mannheimia haemolytica MH 10720 (154, BRD field isolate); test: MIC, broth-microdilution (CLSI VET01-A4), strain MH 10720; details: Mannheimia haemolytica strain MH 10720, broth-microdilution; unit assumed
Procedure, shortened: as §1

[6] = tested on: Pasteurella multocida PM 12080 (IV102277-0093, BRD field isolate); test: MIC, broth-microdilution (CLSI VET01-A4), strain PM 12080; details: Pasteurella multocida strain PM 12080, broth-microdilution; unit assumed
Procedure, shortened: as §1

[7] = tested on: Mannheimia haemolytica MH 6357 (M7/2, reference strain, cattle infection strain); test: MIC, broth-microdilution (CLSI VET01-A4), strain MH 6357; details: Mannheimia haemolytica strain MH 6357, broth-microdilution; unit assumed
Procedure, shortened: as §1

[8] = tested on: Mannheimia haemolytica MH 13065 (XB0446-6003.9, BRD field isolate); test: MIC, broth-microdilution (CLSI VET01-A4), strain MH 13065; details: Mannheimia haemolytica strain MH 13065, broth-microdilution; unit assumed
Procedure, shortened: as §1

[9] = tested on: Pasteurella multocida PM 6391 (ATCC 43137, reference strain); test: MIC, broth-microdilution (CLSI VET01-A4), strain PM 6391; details: Pasteurella multocida strain PM 6391, broth-microdilution; unit assumed
Procedure, shortened: as §1

[10] = tested on: Pasteurella multocida PM 6267 (P 2225 (L386), reference strain, mouse infection strain); test: MIC, broth-microdilution (CLSI VET01-A4), strain PM 6267; details: Pasteurella multocida strain PM 6267, broth-microdilution; unit assumed
Procedure, shortened: as §1

MIC PM 10775 [1]	MIC PM 12080 [6]	MIC PM 6391 [9]	MIC PM 6267 [10]	Structure (SMILES)	MIC MH 13093 [2]	MIC MH 12587 [3]	MIC MH 6374 [4]	MIC MH 10720 [5]	MIC MH 6357 [7]	MIC MH 13065 [8]
≤ 0.1 µg/mL	≤ 0.1 µg/mL	≤ 0.1 µg/mL	≤ 0.1 µg/mL	CC(C)([C@H](NC(=O)c1ccc(C#Cc2ccc(CN3CCOCC3)cc2)cc1)C(=O)NO)S(C)(=O)=O [Compound 258]	1.6 µg/mL (≈ 3.12 µM)	1.6 µg/mL (≈ 3.12 µM)	1.6 µg/mL (≈ 3.12 µM)	0.2 µg/mL (≈ 0.389 µM)	1.6 µg/mL (≈ 3.12 µM)	0.8 µg/mL (≈ 1.56 µM)
≤ 0.1 µg/mL	≤ 0.1 µg/mL	≤ 0.1 µg/mL	≤ 0.1 µg/mL	CSC(C)(C)[C@H](NC(=O)c1ccc(C#Cc2ccc(CNC3CC3)cc2)cc1)C(=O)NO [Compound 235]	0.4 µg/mL (≈ 0.886 µM)	1.6 µg/mL (≈ 3.54 µM)	0.8 µg/mL (≈ 1.77 µM)	≤ 0.1 µg/mL	0.4 µg/mL (≈ 0.886 µM)	0.4 µg/mL (≈ 0.886 µM)
≤ 0.1 µg/mL	0.4 µg/mL (≈ 0.918 µM)	0.4 µg/mL (≈ 0.918 µM)	≤ 0.1 µg/mL	CC(C)(O)[C@H](NC(=O)c1ccc(C#Cc2ccc(CNC3CCC3)cc2)cc1)C(=O)NO [Compound 226]	6.3 µg/mL (≈ 14.5 µM)	12.5 µg/mL (≈ 28.7 µM)	3.1 µg/mL (≈ 7.12 µM)	0.8 µg/mL (≈ 1.84 µM)	3.1 µg/mL (≈ 7.12 µM)	3.1 µg/mL (≈ 7.12 µM)
≤ 0.1 µg/mL	0.2 µg/mL (≈ 0.398 µM)	0.8 µg/mL (≈ 1.59 µM)	0.8 µg/mL (≈ 1.59 µM)	CSC(C)(C)[C@H](NC(=O)c1ccc(C#Cc2ccc(CNCc3ccccc3)nc2)cc1)C(=O)NO [Compound 339]	1.6 µg/mL (≈ 3.18 µM)	1.6 µg/mL (≈ 3.18 µM)	1.6 µg/mL (≈ 3.18 µM)	≤ 0.1 µg/mL	0.8 µg/mL (≈ 1.59 µM)	0.8 µg/mL (≈ 1.59 µM)
0.2 µg/mL (≈ 0.389 µM)	0.8 µg/mL (≈ 1.55 µM)	1.6 µg/mL (≈ 3.11 µM)	3.1 µg/mL (≈ 6.02 µM)	Cc1ccc(CNCc2ccc(C#Cc3ccc(C(=O)NC(C(=O)NO)C(C)(C)[N+](=O)[O-])cc3)cc2)cc1 (centres unmarked) [Compound 283]	3.1 µg/mL (≈ 6.02 µM)	6.3 µg/mL (≈ 12.2 µM)	3.1 µg/mL (≈ 6.02 µM)	0.2 µg/mL (≈ 0.389 µM)	3.1 µg/mL (≈ 6.02 µM)	1.6 µg/mL (≈ 3.11 µM)
≤ 0.1 µg/mL	0.4 µg/mL (≈ 0.747 µM)	0.8 µg/mL (≈ 1.49 µM)	0.4 µg/mL (≈ 0.747 µM)	CC(C)([C@H](NC(=O)c1ccc(C#Cc2ccc(CNCc3cccnc3)nc2)cc1)C(=O)NO)S(C)(=O)=O [Compound 373]	3.1 µg/mL (≈ 5.79 µM)	6.3 µg/mL (≈ 11.8 µM)	3.1 µg/mL (≈ 5.79 µM)	0.4 µg/mL (≈ 0.747 µM)	1.6 µg/mL (≈ 2.99 µM)	3.1 µg/mL (≈ 5.79 µM)
≤ 0.1 µg/mL	3.1 µg/mL (≈ 8.39 µM)	1.6 µg/mL (≈ 4.33 µM)	0.8 µg/mL (≈ 2.17 µM)	O=C(N[C@@H](CO)C(=O)NO)c1ccc(C#Cc2ccc([N+](=O)[O-])cc2)cc1 [Compound 375, N-[(1S)-2-(hydroxyamino)-1-(hydroxymethyl)-2-oxo-ethyl]-4-[2-(4-nitrophenyl)ethynyl]benzamide]	6.3 µg/mL (≈ 17.1 µM)	6.3 µg/mL (≈ 17.1 µM)	3.1 µg/mL (≈ 8.39 µM)	0.8 µg/mL (≈ 2.17 µM)	1.6 µg/mL (≈ 4.33 µM)	3.1 µg/mL (≈ 8.39 µM)
0.8 µg/mL (≈ 1.8 µM)	0.4 µg/mL (≈ 0.898 µM)	≤ 0.1 µg/mL	6.3 µg/mL (≈ 14.1 µM)	CC(=O)C(NC(=O)c1ccc(C#Cc2ccc(CNCc3ccco3)cc2)cc1)C(=O)NO (centres unmarked) [Compound 410]	1.6 µg/mL (≈ 3.59 µM)	0.4 µg/mL (≈ 0.898 µM)	1.6 µg/mL (≈ 3.59 µM)	1.6 µg/mL (≈ 3.59 µM)	0.8 µg/mL (≈ 1.8 µM)	1.6 µg/mL (≈ 3.59 µM)
≤ 0.1 µg/mL	≤ 0.1 µg/mL	0.2 µg/mL (≈ 0.38 µM)	0.8 µg/mL (≈ 1.52 µM)	CC(C)([C@H](NC(=O)c1ccc(C#Cc2ccc(CNCC(F)(F)F)nc2)cc1)C(=O)NO)S(C)(=O)=O [Compound 355]	1.6 µg/mL (≈ 3.04 µM)	1.6 µg/mL (≈ 3.04 µM)	1.6 µg/mL (≈ 3.04 µM)	≤ 0.1 µg/mL	0.8 µg/mL (≈ 1.52 µM)	0.8 µg/mL (≈ 1.52 µM)
≤ 0.1 µg/mL	0.2 µg/mL (≈ 0.431 µM)	0.4 µg/mL (≈ 0.863 µM)	≤ 0.1 µg/mL	CC[C@H](C)[C@H](NC(=O)c1ccc(C#Cc2ccc(CN3CCCOCC3)cc2)cc1)C(=O)NO [Compound 186]	3.1 µg/mL (≈ 6.69 µM)	6.3 µg/mL (≈ 13.6 µM)	6.3 µg/mL (≈ 13.6 µM)	1.6 µg/mL (≈ 3.45 µM)	1.6 µg/mL (≈ 3.45 µM)	3.1 µg/mL (≈ 6.69 µM)
≤ 0.1 µg/mL	≤ 0.1 µg/mL	0.2 µg/mL (≈ 0.412 µM)	≤ 0.1 µg/mL	Cc1ccc(CNCc2ccc(C#Cc3ccc(C(=O)NC(C(=O)NO)C(C)(C)O)cc3)cc2)cc1 (centres unmarked) [Compound 233]	0.8 µg/mL (≈ 1.65 µM)	1.6 µg/mL (≈ 3.3 µM)	0.4 µg/mL (≈ 0.824 µM)	≤ 0.1 µg/mL	0.8 µg/mL (≈ 1.65 µM)	0.4 µg/mL (≈ 0.824 µM)
